The results in this text go back to patent US12479886B2, “Inhibitors of IL-15 and their use in treating autoimmune/inflammatory disorders” (University of Houston System, priority 2019, dated 2025).

SMILES strings stand for the structures. Bridge positions count the residues as written; N and C are the ends. Square brackets hold non-standard residues; d marks the D form. Peptide text beside a SMILES is read from it. I, II: the chains in the order shown. N(4-MeOBn)Gly = COc1ccc(CNCC(=O)O)cc1; Nleu = CC(C)CNCC(=O)O; Nlys = NCCCCNCC(=O)O; Nme = COCCNCC(=O)O

The target in test [1] is T1, IL-15 receptor a (IL15RA) (Homo sapiens, UniProt Q13261).
T1 construct: Cell lysates from IL-15RA positive HeLa cells (expressing IL15RA) or IL-15RA negative HeLa cells (transfected with IL15RA siRNA to knock down IL15RA); endogenous in cells; host or cells: HeLa
The test is described as follows: in vitro pull-down assay with peptoid-conjugated beads and HeLa cell lysates, Coomassie staining and western blot. The settings on record: beads conjugated with compound, 4° C. overnight; band identity confirmed by western blot. The format is binding. As for the experimental part:
FIGS. 2A-B. Confirmation of the binding of IFRA3 to IL-15 receptor a subunit. […] Cell lysates from IL-15RA positive HeLa cells (expressing IL15RA) or IL-15RA negative HeLa cells (transfected with IL15RA siRNA to knock down IL15RA) were incubated with beads conjugated with IFRA1, or IFRA2, or IFRA3 at 4° C. overnight. The beads were then washed with RIPA buffer for 3 times, and the binding proteins were eluted with 1% SDS. The yielded lysates were then applied onto 12% SDS-PAGE gel and subjected to Coomassie blue staining. (FIG. 2B) Protein in the gel was transferred to membrane and identified by western blotting analysis with antibody against IL-15RA.
Cell lysates from IL-15RA positive HeLa cells (expressing IL15RA) or IL-15RA negative HeLa cells (transfected with IL15RA siRNA to knock down IL15RA) were incubated with beads conjugated with IFRA1, or IFRA2, or IFRA3 at 4° C. overnight. The beads were then washed with RIPA buffer for 3 times, and the binding proteins were eluted with 1% SDS. The yielded lysates were then applied onto 12% SDS-PAGE gel and subjected to Coomassie blue staining. Protein in the gel was transferred to membrane and identified by western blotting analysis with antibody against IL-15RA. […] Western blot results confirmed the identity of the protein band as IL15RA. Thus, the data support that IFRA3 can bind to IL15RA.
In general terms: Immunoblotting shows a protein as a band on a membrane.

The next test concerns the target T2, IL-15 Rα (Homo sapiens, UniProt Q13261).
T2 construct: Cell lysates from IL-15RA positive HeLa cells (expressing IL15RA) or IL-15RA negative HeLa cells (transfected with IL15RA siRNA to knock down IL15RA); endogenous in cells; host or cells: HeLa
The test is described as follows: on-bead two-color (OBTC) screening and validation with IL-15Rα expressing and non-expressing HeLa cells. The format is cell-based. On the procedure:
FIGS. 1A-C. Discovery of the IL-15 receptor a subunit-binding compound IFRA3 through OBTC screening of a peptoid library. To identify compounds that can bind to IL-15 receptor, the inventors performed an on-bead two-color (OBTC) screening experiment. HeLa cells expressing IL-15 Rα were stained with red Qdot® […] nanocrystals and HeLa cells not expressing IL-15 Rα were stained with green Qdot® […] nanocrystals. One million green cells and one million red cells were mixed and incubated for 1 hour with 50,000 peptoid compound library beads containing one-compound on one bead at 23° C. Beads that bind to only red cells but not green cells were isolated under fluorescent microscope and the compound attached to the bead was identified by mass spectrometry. (FIG. 1A) Illustration of the OBTC screening mechanism. (FIG. 1B) One example of the bead that binds only the red cells. (FIG. 1C) The chemical structure of IFRA3, one of the three hits discovered in this screening.
FIG. 3. Validation of the binding of IFRA3 to IL-15 receptor a subunit using OBTC. The compound IFRA3 was resynthesized on the beads and were incubated with IL-15 RA expressing HeLa cells (red stained) and IL-15RA negative HeLa cells (green stained) individually as well as 1:1 mixture of red and green cells. […]

A further test concerns IL-15. Nature of the test: CTLL-2 proliferation assay (WST-1). The format is cell-based, murine. As for the experimental part: FIGS. 7A-C. IFRA3Q1 inhibits the IL-15 activity. To determine if IFRA3 and its derivatives can regulate the function of IL-15, the inventors performed CTLL-2 proliferation assay. The proliferation of murine T cell line CTLL-2 depends on the presence and activity of IL-15. CTLL-2 cells were seeded into 96-well plates and treated with IL-15 in the presence or absence of IFRA3D1, IFRA3T1, or IFRA3Q1 at indicated concentrations for 72 hours. CTLL-2 cell proliferation was measured by WST-1 assay.
To determine if IFRA3 and its derivatives can regulate the function of IL-15, the inventors performed CTLL-2 proliferation assay. The proliferation of murine T cell line CTLL-2 depends on the presence and activity of IL-15. CTLL-2 cells were seeded into 96-well plates and treated with IL-15 in the presence or absence of IFRA3D1, IFRA3T1, or IFRA3Q1 at indicated concentrations for 72 hours. CTLL-2 cell proliferation was measured by WST-1 assay. […] IFRA3 and its derivatives had no effects on cell proliferation by themselves.
A general note: Tetrazolium assays rely on reduction of a dye to a coloured formazan, in cell work by metabolically active cells.

T2 sequence (Q13261 31-267): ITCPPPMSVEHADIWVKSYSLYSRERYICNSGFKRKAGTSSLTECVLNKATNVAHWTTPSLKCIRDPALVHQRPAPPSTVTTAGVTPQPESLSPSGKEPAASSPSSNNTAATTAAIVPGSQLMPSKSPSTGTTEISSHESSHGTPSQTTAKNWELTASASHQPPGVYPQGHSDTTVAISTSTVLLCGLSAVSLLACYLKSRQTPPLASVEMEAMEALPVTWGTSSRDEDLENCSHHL
T1 sequence (Q13261 31-267): as above

Regarding `COCCN(CC(=O)NC(CCCCN)C(=O)NC(CCSC)C(N)=O)C(=O)CN(CCCCN)C(=O)CN(CCCCN)C(=O)CN(CCOC)C(=O)CN(Cc1ccc(OC)cc1)C(=O)CNCC(C)C` (centres unmarked) [IFRA3] (H-[Nleu][N(4-MeOBn)Gly][Nme][Nlys][Nlys][Nme]KM-NH2; configuration not given here), in test [1], the “pull-down of IL15RA from cell lysates” value was “can pull down a protein band corresponding to the size of IL15RA”. Also, at IL-15 Rα (IL-15RA expressing (red) and negative (green) HeLa cells, individually and as 1:1 mixture), the “binding of cells to beads with resynthesized compound (OBTC validation)” value was “only red cells bind to the beads, and the green cells do not bind”. Moreover, the “binding to IL-15 receptor subunit a in OBTC screen (hit)” value on IL-15 Rα (peptoid library beads, red IL-15Rα+ and green IL-15Rα- HeLa cells, 1 hour, 23° C.) is reported as “binds to the IL-15 receptor subunit a”. The “effect on cell proliferation by themselves” value in the test with IL-15 (CTLL-2 cells, compound alone without IL-15) is “no effects”.
As for `COCCN(CC(=O)NC(CCCCN)C(=O)NC(CCSC)C(=O)NCCCCC(NC(=O)C(CCCCNC(=O)C(CCSC)NC(=O)C(CCCCN)NC(=O)CN(CCOC)C(=O)CN(CCCCN)C(=O)CN(CCCCN)C(=O)CN(CCOC)C(=O)CN(Cc1ccc(OC)cc1)C(=O)CNCC(C)C)NC(=O)C(CCSC)NC(=O)C(CCCCN)NC(=O)CN(CCOC)C(=O)CN(CCCCN)C(=O)CN(CCCCN)C(=O)CN(CCOC)C(=O)CN(Cc1ccc(OC)cc1)C(=O)CNCC(C)C)C(N)=O)C(=O)CN(CCCCN)C(=O)CN(CCCCN)C(=O)CN(CCOC)C(=O)CN(Cc1ccc(OC)cc1)C(=O)CNCC(C)C` (centres unmarked) [IFRA3T1] (I: H-[Nleu][N(4-MeOBn)Gly][Nme][Nlys][Nlys][Nme]KMKK-NH2 / II: H-[Nleu][N(4-MeOBn)Gly][Nme][Nlys][Nlys][Nme]KM / III: H-[Nleu][N(4-MeOBn)Gly][Nme][Nlys][Nlys][Nme]KM; amide I:9-II:C, I:10-III:C; configuration not given here), the “inhibition of IL-15-stimulated proliferation of CTLL-2 cells” value with IL-15 (with IL-15, 72 hours, WST-1) is listed as “less effects”.
